According to patent publication US20220281821A1, “INDAZOLE COMPOUNDS AND THEIR PHARMACEUTICAL COMPOSITIONS” (Jinan University, priority 2019, published 2022):
pIC50: −log10 of the molar value. Where two headings read alike, the source gives them in different places.

Key:
TRKA = biological target: T1, TRKA (Homo sapiens, UniProt P04629); experiment: Z′-LYTE kinase activity assay, TRKA; format: biochemical; details: ATP 400 uM
T1 construct: purchased life technologies PV3144
In short: (§1)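 IC50 values were fitted to inhibition calculated from the emission-ratio-based phosphorylation ratio relative to negative control, across a compound concentration gradient.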

TRKs (TRK1, TRK2, TRK3) = experiment: Kinase activity on TRKs, summary statements; format: biochemical; details: summary statement
Text: Kinase activity assay: Z′-LYTE™ technology (detection by fluorescence, enzyme-conjugated format, based on the difference in sensitivity of phosphorylated and non-phosphorylated peptides to proteolytic cleavage) was applied, and using the principle of fluorescence resonance energy transfer (FRET), a Z′-LYTE™ FRET peptide substrate (Z′-LYTE™ Tyrosine 1 Peptide Substrate, Invitrogen, PV3190), and a secondary reaction were used to detect the inhibitory activity of the compounds on TRKs (TRK1, TRK2, TRK3) (life technologies, PV3144, PV3616, PV3617).
Enzymatic reaction: In a 384-well plate, 5 μL of an enzyme-substrate system (50 mM HEPES pH 7.5, 0.01% BRIJ-35, 10 mM MgCl2, 1 mM EGTA, 2 μM Tyr 01 Peptide Substrate) was added and 5 nL of compound (concentration gradient) was transferred thereto by using the echo520 ultramicro liquid pipetting system. After shaking for 10-20 min at room temperature, 200 nL, 12.5 nL and 25 nL of ATP (final concentrations are 400 uM, 25 uM and 50 uM, respectively) were transferred by using the echo520 ultramicro liquid pipetting system. After shaking and mixing, centrifuging was performed. A reaction was carried out at 30° C. in the dark for 1.5 hours.
Assay reaction: 2.54 of Development Solution (1:128 dilution) was added in each well, and incubated at 37° C. in the dark for 1 hour, and then 5 μL of Stop Reagent was added.
Plate reading: fluorescence signals were detected using a Perkin Elmer EnVision Multimode Plate Reader (excitation at 400 nm, and emission at 460 nm, and 535 nm).
Calculation: the inhibition rate of each well was calculated by the fully active well and control signal wells. The data were analyzed as follows:
Phosphorylation ratio=1−{(emission ratio×F100%−C100%)/[C0%−C100%+emission ratio×(F100%−F0%)]}×100;
Inhibition rate=100×(1−compound phosphorylation ratio/negative control phosphorylation ratio).
IC50 values were calculated by using GraphPad Prism 5.0 software.

TRKC = biological target: T2, TRKC (Homo sapiens, UniProt Q16288); experiment: Z′-LYTE kinase activity assay, TRKC; format: biochemical; details: ATP 50 uM
T2 construct: purchased life technologies PV3617
T2 sequence (Q16288 32-839): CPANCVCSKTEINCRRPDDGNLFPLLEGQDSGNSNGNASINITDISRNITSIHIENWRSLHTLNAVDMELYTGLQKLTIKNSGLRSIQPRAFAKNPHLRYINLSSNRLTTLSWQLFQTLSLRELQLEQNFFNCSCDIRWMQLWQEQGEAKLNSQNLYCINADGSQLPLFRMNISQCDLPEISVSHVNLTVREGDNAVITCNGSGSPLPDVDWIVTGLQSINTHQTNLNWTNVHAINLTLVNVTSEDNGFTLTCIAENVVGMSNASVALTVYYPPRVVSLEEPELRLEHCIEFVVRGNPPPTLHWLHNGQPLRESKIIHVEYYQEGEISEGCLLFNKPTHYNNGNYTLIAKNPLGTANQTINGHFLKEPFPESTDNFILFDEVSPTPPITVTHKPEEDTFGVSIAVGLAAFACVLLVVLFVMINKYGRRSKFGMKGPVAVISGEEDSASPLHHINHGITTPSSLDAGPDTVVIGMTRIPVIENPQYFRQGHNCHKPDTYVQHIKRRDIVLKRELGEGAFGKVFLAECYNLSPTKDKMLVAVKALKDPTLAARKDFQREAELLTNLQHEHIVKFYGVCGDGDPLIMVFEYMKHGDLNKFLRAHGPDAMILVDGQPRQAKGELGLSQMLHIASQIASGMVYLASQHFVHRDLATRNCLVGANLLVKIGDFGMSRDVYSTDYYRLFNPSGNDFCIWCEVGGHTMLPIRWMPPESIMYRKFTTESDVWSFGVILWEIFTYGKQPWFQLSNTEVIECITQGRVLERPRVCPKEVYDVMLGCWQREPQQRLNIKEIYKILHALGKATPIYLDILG
In short: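 Recombinant TRK kinase tested in a Z′-LYTE FRET assay with 2 μM Tyr 01 peptide substrate in 50 mM HEPES pH 7.5, 10 mM MgCl2, 1 mM EGTA, 0.01% BRIJ-35. IC50 obtained by curve fitting.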

BaF3-ETV6-NTRK2 = biological target: T3, BaF3-ETV6-NTRK2 (Homo sapiens, UniProt Q16620); experiment: Cell proliferation inhibition (CCK-8), BaF3-ETV6-NTRK2 stable strain; format: cell-based, mouse; details: BaF3-ETV6-NTRK2, 72 hours
T3 construct: fused on or other part: P41212 (Transcription factor ETV6)
T3 sequence (Q16620 538-822 limits assumed): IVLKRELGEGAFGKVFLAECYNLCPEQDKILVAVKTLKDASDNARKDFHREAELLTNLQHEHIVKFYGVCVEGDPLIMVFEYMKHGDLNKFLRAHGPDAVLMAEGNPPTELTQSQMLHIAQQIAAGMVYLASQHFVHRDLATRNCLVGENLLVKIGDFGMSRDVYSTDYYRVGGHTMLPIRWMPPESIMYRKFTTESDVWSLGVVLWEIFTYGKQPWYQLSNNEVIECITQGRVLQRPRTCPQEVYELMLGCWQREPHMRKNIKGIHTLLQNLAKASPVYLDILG
In short: (§2)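 Ba/F3 cells stably electroporated with ETV6-NTRK3, CD74-NTRK1 or ETV6-NTRK2, selected with G418 and grown without IL3, then cloned by limiting dilution.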

BaF3-ETV6-NTRK3 = biological target: T4, BaF3-ETV6-NTRK3 (Homo sapiens, UniProt Q16288); experiment: Cell proliferation inhibition (CCK-8), BaF3-ETV6-NTRK3 stable strain; format: cell-based, mouse; details: BaF3-ETV6-NTRK3, 72 hours
T4 construct: fused on or other part: P41212 (Transcription factor ETV6)
T4 sequence (Q16288 whole entry, the tested form may be a part): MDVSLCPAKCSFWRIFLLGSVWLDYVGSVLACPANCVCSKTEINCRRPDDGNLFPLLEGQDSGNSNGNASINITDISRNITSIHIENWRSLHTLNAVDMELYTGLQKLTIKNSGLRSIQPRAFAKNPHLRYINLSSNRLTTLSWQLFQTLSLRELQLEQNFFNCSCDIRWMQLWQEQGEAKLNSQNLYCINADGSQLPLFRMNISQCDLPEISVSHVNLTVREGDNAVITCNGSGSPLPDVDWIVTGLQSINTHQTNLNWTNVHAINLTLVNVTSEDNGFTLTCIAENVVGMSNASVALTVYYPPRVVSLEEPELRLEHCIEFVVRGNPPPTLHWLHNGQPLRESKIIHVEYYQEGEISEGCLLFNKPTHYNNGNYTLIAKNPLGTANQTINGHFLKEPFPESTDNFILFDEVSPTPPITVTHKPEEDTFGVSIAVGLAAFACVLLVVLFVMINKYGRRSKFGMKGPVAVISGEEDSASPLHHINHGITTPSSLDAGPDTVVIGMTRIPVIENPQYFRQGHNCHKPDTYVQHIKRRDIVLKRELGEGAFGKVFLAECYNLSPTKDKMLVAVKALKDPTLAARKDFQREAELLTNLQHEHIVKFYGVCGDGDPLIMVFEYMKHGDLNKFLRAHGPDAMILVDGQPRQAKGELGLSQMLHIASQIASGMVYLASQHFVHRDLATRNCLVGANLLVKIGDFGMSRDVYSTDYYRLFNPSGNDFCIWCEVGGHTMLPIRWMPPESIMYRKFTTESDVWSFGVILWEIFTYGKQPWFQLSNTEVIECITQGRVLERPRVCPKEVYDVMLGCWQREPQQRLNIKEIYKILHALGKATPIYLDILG
In short: as §2

[1] = Rat hepatocyte stability experiment; format: in vitro ADME; details: for Residual percentage (%) 0 min / Residual percentage (%) 5 min / Residual percentage (%) 15 min / Residual percentage (%) 30 min / Residual percentage (%) 60 min / Residual percentage (%) 120 min: average value; for half-life at 1 μM: rat, rat hepatocytes (suspension)
Procedure: In William medium E, dilute the 37° C. rat hepatocyte suspension to an appropriate density (viable cell density=2×10^6 cells/mL). In addition, a 2× quantification solution (the concentration of the test compound was 2 μM) was additionally prepared in William's medium E. The hepatocyte solution and 2× quantification solution were preheated in a water bath of 37° C. 40 µL of the preheated hepatocyte solution (2×10^6 cells/mL) was added into the designated wells for 5, 15, 30, 60, and 120 min, and add 40 µL of the preheated 2× quantification solution and start timing. An assay plate was placed in a 37° C., 5% CO2 incubator with shaking at 110 rpm. At 5, 15, 30, 60, and 120 minutes, 240 μL of ACN containing IS was added to each well. The plate was then sealed and stored in a −35° C. freezer. After collecting at all time points, the plate was shaken for 2 minutes and then centrifuging was performed for 15 minutes at 6000 rmp. 100 μL of supernatant from each well was transferred to a 96-well sample plate containing 100 μL of water for LC/MS analysis, determination of compound concentrations, calculation of rate constants and half-lives.

Ba/F3-TRK stable strains = experiment: Cell proliferation of Ba/F3-TRK stable strains, summary statements; format: cell-based, mouse; details: summary statement
Procedure: The brief steps of stable strain construction are as follows: construct a pCDNA3.1(+) plasmid vector carrying genes such as CD74-NTRK1, ETV6-NTRK2 and ETV6-NTRK3; the plasmid was electroporated into Ba/F3 cells using the Amaxa® Cell Line Nucleofector® Kit V; 48 hours after electroporated, G418 with a final concentration of 1000 μg/ml was added for screening for two weeks, and then IL3 was removed, and continued screening to obtain polyclonal stable strains; then single clones were selected by a limiting dilution method. The stable strains were then identified using positive drugs, WB and gene sequencing; and the monoclonal clones that were identified as completely correct may be used for the study of cell proliferation inhibitory activity of inhibitors.
Cell proliferation inhibition activity study: the cells in the logarithmic growth phase were seeded into 96-well plates at 8000-12000 cells/well, and inhibitors at different concentrations (0-10 μM) were added the next day, and incubation was continued for 72 hours; then 10 μL of CCK-8 reagent was added to each well, and the incubation was continued for 1-3 hours; and then use a super microplate reader to measure their absorbance values at 450 nm and 650 nm. The half-inhibition concentration (IC50) was calculated using GraphPad Prism 8.0.0.

BaF3-CD74-NTRK1 = biological target: T5, BaF3-CD74-NTRK1 (Homo sapiens, UniProt P04629); experiment: Cell proliferation inhibition (CCK-8), BaF3-CD74-NTRK1 stable strain; format: cell-based, mouse; details: BaF3-CD74-NTRK1, 72 hours
T5 construct: fused on or other part: P04233 (HLA class II histocompatibility antigen gamma chain)
T5 sequence (P04629 510-796 limits assumed): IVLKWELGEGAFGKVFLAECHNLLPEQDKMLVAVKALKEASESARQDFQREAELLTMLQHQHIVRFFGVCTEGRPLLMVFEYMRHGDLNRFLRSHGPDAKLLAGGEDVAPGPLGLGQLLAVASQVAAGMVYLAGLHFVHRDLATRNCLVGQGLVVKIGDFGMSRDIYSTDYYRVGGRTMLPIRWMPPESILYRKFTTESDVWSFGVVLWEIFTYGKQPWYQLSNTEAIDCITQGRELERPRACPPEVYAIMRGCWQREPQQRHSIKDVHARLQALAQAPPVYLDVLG
In short: as §2

TRKB = biological target: T6, TRKB (Homo sapiens, UniProt Q16620); experiment: Z′-LYTE kinase activity assay, TRKB; format: biochemical; details: ATP 25 uM
T6 construct: purchased life technologies PV3616
T6 sequence (Q16620 32-822): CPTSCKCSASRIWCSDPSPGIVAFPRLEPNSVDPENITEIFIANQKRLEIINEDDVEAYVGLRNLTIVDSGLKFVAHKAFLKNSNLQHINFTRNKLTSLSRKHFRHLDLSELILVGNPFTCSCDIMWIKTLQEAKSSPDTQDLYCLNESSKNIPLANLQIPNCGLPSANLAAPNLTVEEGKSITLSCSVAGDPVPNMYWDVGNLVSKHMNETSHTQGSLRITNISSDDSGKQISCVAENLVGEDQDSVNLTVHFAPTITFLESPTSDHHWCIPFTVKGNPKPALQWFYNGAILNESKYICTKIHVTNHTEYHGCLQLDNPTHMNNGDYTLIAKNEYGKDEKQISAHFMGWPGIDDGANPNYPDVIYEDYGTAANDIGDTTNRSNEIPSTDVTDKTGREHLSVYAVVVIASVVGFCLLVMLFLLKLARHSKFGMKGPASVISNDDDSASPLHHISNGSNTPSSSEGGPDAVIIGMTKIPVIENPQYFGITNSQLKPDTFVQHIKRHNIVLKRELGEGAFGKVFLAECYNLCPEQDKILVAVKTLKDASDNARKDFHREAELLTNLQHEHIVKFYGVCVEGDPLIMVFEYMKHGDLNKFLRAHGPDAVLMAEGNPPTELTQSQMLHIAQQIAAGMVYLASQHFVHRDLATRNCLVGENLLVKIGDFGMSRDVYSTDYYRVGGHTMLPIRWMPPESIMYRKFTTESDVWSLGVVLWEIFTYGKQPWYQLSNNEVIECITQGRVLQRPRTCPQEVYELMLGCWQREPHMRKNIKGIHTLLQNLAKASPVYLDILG
In short: as §1

[2] = Pharmacokinetic evaluation in SD rats; format: in vivo
Procedure: Pharmacokinetics and oral bioavailability were tested in SD rats. According to the solubility of the drug, a single dose was administered orally, intravenously or by intraperitoneal injection. Animal blood samples were collected at different time points (0, 0.5, 1, 2, 4, 6, 8, and 24 hours), anticoagulated with heparin, and centrifuged to take the supernatant. Blood samples were analyzed by HPLC-MS. DAS2.1 was used for data analysis to detect half-life (T1/2), maximum blood concentration (Cmax), time to peak (Tmax), area under the drug-time curve (AUC), and bioavailability (BA) and other pharmacokinetic data.

T1 sequence (P04629 440-796 limits assumed): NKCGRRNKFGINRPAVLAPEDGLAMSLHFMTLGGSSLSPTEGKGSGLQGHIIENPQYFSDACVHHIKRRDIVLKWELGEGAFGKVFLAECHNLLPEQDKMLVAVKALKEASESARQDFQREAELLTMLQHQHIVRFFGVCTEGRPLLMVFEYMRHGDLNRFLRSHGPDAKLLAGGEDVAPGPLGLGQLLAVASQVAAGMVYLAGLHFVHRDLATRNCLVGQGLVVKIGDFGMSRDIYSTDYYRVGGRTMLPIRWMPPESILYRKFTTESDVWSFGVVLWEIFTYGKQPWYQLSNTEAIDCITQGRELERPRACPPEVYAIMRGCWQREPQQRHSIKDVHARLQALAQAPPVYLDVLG

Structure (SMILES)	inhibitory activity against TRKs kinase (in words) (TRKs (TRK1, TRK2, TRK3))	pIC50 (BaF3-ETV6-NTRK2)	pIC50 (BaF3-ETV6-NTRK3)	Residual percentage (%) 0 min ([1]; rat hepatocytes) [%]	Residual percentage (%) 5 min ([1]; rat hepatocytes) [%]	Residual percentage (%) 15 min ([1]; rat hepatocytes) [%]	Residual percentage (%) 30 min ([1]; rat hepatocytes)	Residual percentage (%) 60 min ([1]; rat hepatocytes)	Residual percentage (%) 120 min ([1]; rat hepatocytes)	half-life at 1 μM [1] [min]	inhibitory activity against cell proliferation of the Ba/F3-TRK stable strains (in words) (Ba/F3-TRK stable strains)	pIC50 (BaF3-CD74-NTRK1)	further results
O=S(=O)(Nc1ccc2[nH]nc(/C=C/c3ccccn3)c2c1)c1cc(F)cc(F)c1 [DYX-165, (E)-3,5-difluoro-N-(3-(2-(pyridin-2-yl)vinyl)-1H-indazol-5-yl)benzenesulfonamide]	strong inhibitory activity	7.31	7.36	100.00	92.73	84.16	73.15%	59.81%	58.02%	154	strong inhibitory activity	6.90	pIC50 (TRKA): 8.89; pIC50 (TRKC): 8.62; metabolic stability (in words) ([1]; rat hepatocytes, comparison with DYX244-1 and DYX318): better metabolic stability; pIC50 (TRKB): 8.49; Half-life ([2]; Sprague-Dawley, rat, plasma, oral administration, 25 mg/kg, read-out: Half-life (converted)): 92.4 min; Area under the drug-time curve (0-t) ([2]; oral administration, 25 mg/kg): 1035.70 µM·h; Area under the drug-time curve (0-∞) ([2]; oral administration, 25 mg/kg): 1035.78 µM·h; Maximum blood concentration ([2]; oral administration, 25 mg/kg): 91.56 µM; Time to Peak ([2]; oral administration, 25 mg/kg): 4.00 h; oral absorption properties (in words) ([2]; oral, comparison with DYX244-1): better oral absorption properties
C[C@@H](Nc1ccc2[nH]nc(/C=C/c3ccccn3)c2c1)c1cc(F)cc(F)c1 [DYX-244-1, (R,E)-N-(1-(3,5-difluorophenyl)ethyl)-3-(2-(pyridin-2-yl)vinyl)-1H-indazol-5-amine]	strong inhibitory activity			100.00	71.83	48.63	14.84%	8.20%	5.40%	11.1			Area under the drug-time curve (0-t) ([2]; intravenous injection, 2 mg/kg): 3.68 µM·h; Area under the drug-time curve (0-∞) ([2]; intravenous injection, 2 mg/kg): 3.69 µM·h; Half-life ([2]; intravenous injection, 2 mg/kg): 83.4 min; Maximum blood concentration ([2]; intravenous injection, 2 mg/kg): 6.77 µM; Removal rate ([2]; intravenous injection, 2 mg/kg): 1.44 L/h/kg; Time to Peak ([2]; intravenous injection, 2 mg/kg): 0.08 h; Bioavailability (%) ([2]; oral 10 mg/kg vs intravenous 2 mg/kg): 8.79%; Area under the drug-time curve (0-t) ([2]; oral administration, 10 mg/kg): 1.62 µM·h; Area under the drug-time curve (0-∞) ([2]; oral administration, 10 mg/kg): 1.64 µM·h; Half-life ([2]; oral administration, 10 mg/kg): 67.8 min; Maximum blood concentration ([2]; oral administration, 10 mg/kg): 0.36 µM; Time to Peak ([2]; oral administration, 10 mg/kg): 2.00 h
C[C@@H](Nc1cnc2[nH]nc(/C=C/c3ccccn3)c2c1)c1cc(F)cc(F)c1 [DYX-318, (R,E)-N-(1-(3,5-difluorophenyl)ethyl)-3-(2-(pyridin-2-yl)vinyl)-1H-pyrazolo[3,4-b]pyridin-5-amine]	strong inhibitory activity	7.47	8.04	100.00	27.83	12.24	1.36%	0.27%	0.20%	2.71	strong inhibitory activity	8.02	
C[C@]12CC[C@H]3[C@@H](CCC4=CC(=O)CC[C@@]43C)[C@@H]1CC[C@@H]2O [Testosterone, reference compound]				100.00	21.21	5.78	BQL	BQL	BQL	2.23			
